Experimental data taken from patent US20190022088A1 (RedHill Biopharma Ltd., priority 2017, published 2019).

Tests used:
Human Trypsin-3 = target: T1, Human Trypsin-3 (Homo sapiens, UniProt P35030); assay: Ki of WX-UK1, chromogenic substrate cleavage; type: biochemical; details: 37° C., 0.5% BSA, pH=7.4, read-out: Ki (μM) Mean ± SD (n)
T1 sequence (P35030 81-304 limits assumed): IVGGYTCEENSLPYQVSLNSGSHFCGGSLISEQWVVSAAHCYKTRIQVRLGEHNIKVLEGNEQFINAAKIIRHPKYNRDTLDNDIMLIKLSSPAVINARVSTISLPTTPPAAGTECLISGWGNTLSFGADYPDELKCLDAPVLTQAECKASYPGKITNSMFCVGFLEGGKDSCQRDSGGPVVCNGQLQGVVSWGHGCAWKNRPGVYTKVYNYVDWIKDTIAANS

trypsin-2 [1] = target: T2, trypsin-2 (Homo sapiens, UniProt P07478); assay: Ki of WX-UK1, chromogenic substrate cleavage; type: biochemical; details: 37° C., 0.5% BSA, pH=7.4, read-out: Ki (μM) Mean ± SD (n)
T2 sequence (P07478 24-247): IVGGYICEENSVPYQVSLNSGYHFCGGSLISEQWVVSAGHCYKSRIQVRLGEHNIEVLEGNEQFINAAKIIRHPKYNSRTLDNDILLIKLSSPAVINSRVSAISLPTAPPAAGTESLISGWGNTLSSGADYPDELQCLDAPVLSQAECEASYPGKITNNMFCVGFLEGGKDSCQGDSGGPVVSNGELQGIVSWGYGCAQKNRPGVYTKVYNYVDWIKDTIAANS

Human Trypsin-1 = Human Trypsin-1 (Homo sapiens, UniProt P07477); assay: Ki of WX-UK1, chromogenic substrate cleavage; type: biochemical; details: 37° C., 0.5% BSA, pH=7.4, read-out: Ki (μM) Mean ± SD (n)
Human Tryptase- = assay: Ki of WX-UK1, chromogenic substrate cleavage; type: biochemical; details: Human Tryptase- (isoform character is an image); 37° C., 0.5% BSA, pH=7.4; read-out: Ki (μM) Mean ± SD (n)
Method: (§1) Samples of the selected proteases were prepared and characterized biochemically with respect to inhibitory constant (Ki) of inhibition by WX-UK1-1 and affinity (Kd) of the interaction.
Substrate concentrations were kept high in order to stay around 10% turnover per run.

trypsin-2 [2] = target: T2, trypsin-2; assay: Drug-binding kinetic studies
Method: as §1

Solubility = type: physicochemical
[3] = target: urokinase type plasminogen activator (uPA) (Homo sapiens, UniProt P00749); details: previously shown; cited from earlier work
plasmin = plasmin (Homo sapiens, UniProt P00747); details: previously shown; cited from earlier work
Sequence of plasmin (P00747 581-810 limits assumed, species assumed): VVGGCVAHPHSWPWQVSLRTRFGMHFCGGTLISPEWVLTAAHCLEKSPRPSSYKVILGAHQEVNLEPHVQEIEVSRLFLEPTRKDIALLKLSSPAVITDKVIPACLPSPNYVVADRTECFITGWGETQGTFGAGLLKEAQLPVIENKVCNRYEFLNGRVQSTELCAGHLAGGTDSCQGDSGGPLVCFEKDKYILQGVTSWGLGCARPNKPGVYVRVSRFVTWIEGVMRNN
Sequence of plasmin (P00747 97-580 partner limits assumed, species assumed): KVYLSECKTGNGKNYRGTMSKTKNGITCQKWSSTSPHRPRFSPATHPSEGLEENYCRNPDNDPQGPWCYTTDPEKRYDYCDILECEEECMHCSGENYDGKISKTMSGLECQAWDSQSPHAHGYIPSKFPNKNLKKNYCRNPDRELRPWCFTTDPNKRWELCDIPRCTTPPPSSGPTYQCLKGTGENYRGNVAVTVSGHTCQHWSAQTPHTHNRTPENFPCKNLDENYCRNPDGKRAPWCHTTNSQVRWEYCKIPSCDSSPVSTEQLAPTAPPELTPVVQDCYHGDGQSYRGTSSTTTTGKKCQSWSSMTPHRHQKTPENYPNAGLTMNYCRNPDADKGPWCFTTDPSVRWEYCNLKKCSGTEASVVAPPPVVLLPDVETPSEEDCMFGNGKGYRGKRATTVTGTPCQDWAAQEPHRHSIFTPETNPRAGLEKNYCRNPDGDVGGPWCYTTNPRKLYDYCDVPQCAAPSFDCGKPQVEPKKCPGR

implanted tumors = details: parenterally administered; cited from earlier work

CCOC(=O)N1CCN(C(=O)C(Cc2cccc(C(=N)N)c2)NS(=O)(=O)c2c(C(C)C)cc(C(C)C)cc2C(C)C)CC1 (stereo not drawn) [WX-UK1, N-α-(2,4,6-triisopropylphenylsulfonyl)-3-amidino-(L)-phenylalanine 4-ethoxycarbonylpiperazide]
Ki (Human Trypsin-3): ~0.019 µM | Ki (trypsin-2 [1]): ~0.075 µM | Ki (Human Trypsin-1): ~0.19 µM | Ki (Human Tryptase-): 11 ± 2 µM | rate of association with trypsin-2 compared with uPA (trypsin-2 [2]): faster | rate of dissociation from trypsin-2 compared with uPA (trypsin-2 [2]): slower | solubility in water (Solubility): poor solubility | Ki [3]: 650 to 900 nM | Ki (plasmin): 1460 to 2400 nM | growth rate of implanted tumors (implanted tumors): reduce the growth rate of implanted tumors | invasion into nearby lymph nodes and spreading to distant target organs of metastasis (implanted tumors): inhibit their invasion into nearby lymph nodes and their spreading to distant target organs of metastasis
